Three compounds from patent US12545637B2, “Extrahepatic targeted cationic lipid compound with high efficiency and low toxicity and its composition” (BEIJING YOUCARE KECHUANG PHARMACEUTICAL TECHNOLOGY CO., LTD., priority 2023, dated 2026) can be followed below.

Data set [1] relates to female BALB/C mice. In words: In vivo imaging in mice of Fluc-mRNA LNP formulations (mRNA expression and duration). The settings on record: Fluc-mRNA LNP intramuscular; for average radiation intensity, 6 h: 6 h after administration; for average radiation intensity, 24 h: 24 h after administration; for average radiation intensity, 48 h: 48 h after administration; for average radiation intensity, 7 d: 7 d after administration. The protocol: (§1) The LNP formulation (prepared according to Example 4) containing […] Fluc-mRNA was injected intramuscularly into female BALB/C mice aged 4-6 weeks and weighed 17-19 g, and the mice were intraperitoneally injected with fluorescent imaging substrate at specific time points after administration (6h, 24 h, 48h and 7d), where the mice were allowed to free move for 5 minutes, and then the average radiation intensity (corresponding to fluorescence expression intensity) of the protein expression of the mRNA carried by the LNP in the mice was detected by the IVIS Spectrum small animal in vivo imaging system.

A short description of data set [2]: Particle size and polydispersity index (PDI) of lipid nanoparticles by dynamic light scattering. It is filed as physicochemical. As to conditions: for PDI: LNP formulation of the cationic lipid, 25° C.; for Particle size: LNP formulation of the cationic lipid/DSPC/cholesterol/DMG-PEG2000 49:10:39.5:1.5, 25° C. The protocol: The particle size and polydispersity index (PDI) were determined by dynamic light scattering using Malvern laser particle size analyzer.
10 μL of the liposome solution was weighed, diluted to 1 mL with RNase-free deionized water, and added to the sample pool. Each sample was measured in triplicate. The measurement conditions were: […] scattering angle, and 25° C.

A short description of data set [3]: Detection of encapsulation efficiency, drug loading concentration and total RNA concentration (RiboGreen). It is filed as physicochemical. As to conditions: LNP formulation prepared from the cationic lipid. The text has this: Encapsulation efficiency is a key quality attribute of liposomes, which refers to the percentage of drug content encapsulated in the lipid bimolecular layer accounting for the total drug dose and can reflect the degree of drug encapsulation in liposomes. The Chinese Pharmacopoeia stipulates that the encapsulation efficiency should generally not be less than 80%.
The drug loading amount is the ratio of the amount of drug in the liposome to the total amount of drug and carrier in the liposome. The drug loading amount directly affects the clinical application dose of the drug. […] The drug loading concentration is proportional to the drug loading amount, and the relative proportion of the drug loading concentrations can represent the relative proportion of the drug loading amounts. The relative ratio of the total RNA concentrations may represent the relative ratio of the amounts of mRNA carried by the LNP formulations.
1×TE buffer, 0.1% Triton X-100 buffer, RiboGreen reagent (1: 200) and mRNA standard stock solution were prepared.
An appropriate amount of the sample was added to an appropriate amount of 1×TE buffer, and the mixture was diluted to obtain a solution containing approximately […] sample per 1 mL. Then the sample was added to a 96-well plate, and 50 μL of the diluted test sample or the mRNA standard stock solution was added to each well, then 1×TE buffer and 0.1% Triton X-100 buffer were added. The sample was incubated at 37° C. for 10 minutes, and 100 μL RiboGreen reagent (1:200) was added to each well of the test sample in the 96-well plate. The sample was centrifugated, and the data were read using a microplate reader, and processed.

Data set [4] deals with female BALB/C mice. The data set is described as follows: Distribution of liposomes in mice (protein expression in liver, spleen, lung, heart and kidney). It is filed as in vivo. The protocol: as §1
Current mRNA vaccines usually express proteins in muscle.

The test system of data set [5] is 293T cells. In words: Fluorescent detection of Fluc-mRNA (cell transfection efficiency of LNP formulations). It is filed as cell-based. The settings on record: for Relative light unit (RLU): LNP with 0.3 μg Fluc-mRNA, 96-well plate, 24 hours. The protocol:
(§2) Seeding plate: The cells in the culture dish were digested and counted. Cells were spread in a 96-well plate at 10,000 cells per well and in a 12-well plate at 150,000 cells per well. Cells were cultured overnight until the cells adhered to the wall.
The corresponding reagents were added according to the instructions of the Gaussia Luciferase Assay Kit, and the fluorescence expression intensity of each well was detected by an IVIS fluorescence detection system.

The test system of data set [6] is 293T cells. In words: Cell survival rate assay (CCK-8). It is filed as cell-based. The settings on record: LNP with 1.5 μg Fluc-mRNA, 24 hours, CCK-8. The protocol: Cell recovery and passage: 293T cells were recovered, cultured in a culture dish, and passaged to the required number of cells.
as §2
An LNP formulation containing 1.5 μg of Fluc-mRNA (prepared according to example 4, the carrier components of the LNP formulation were cationic lipid, neutral lipid, structured lipid and polymer-conjugated lipid at a molar ratio of 49:10:39.5:1.5, wherein the cationic lipid was listed in Table 1) and the formulation of Lipofectamine 3000 were added to the cell culture medium of a 96-well plate, and further cultivated for 24 hours. 10 μL of CCK-8 solution was then added to each well, and the culture plate was incubated in an incubator for 1 hour. The absorbance at 450 nm was measured by a microplate reader.

Data set [7] relates to 293T cells. The data set is described as follows: Fluorescent detection of Fluc-mRNA (cell transfection efficiency of LNP formulations). It is filed as cell-based.

With `CCCCCCCCCCCOC(=O)CCCCCN(CCO)CCCCCCCC(=O)OC(CCCCCCCC)CCCCCCCC` [SM-102, reference compound], in the data set with female BALB/C mice [1], the “average radiation intensity, 6 h” value is recorded as 691480; the “average radiation intensity, 24 h” value was 123380; the “average radiation intensity, 48 h” value came to 32871; the “average radiation intensity, 7 d” value is reported as 6723. Also, in data set [2], the PDI was 22.3% and the Particle size is reported as 154 nm. For the same compound, in data set [3], the Drug loading concentration was determined as 26.53 µg/mL, the Encapsulation efficiency is 62.9% and the “Total RNA concentration” value worked out at 36.04 µg/mL. Also, in the data set on female BALB/C mice [4] (mouse, in vivo), the “protein expression in the liver” value is recorded as “had protein expression in the liver” and the “protein expression in the spleen” value is on record as “had protein expression in the spleen”. Moreover, the “Relative light unit (RLU)” value in the data set on 293T cells [5] came out at 1704121 RLU. In the data set on 293T cells [6], the Cell survival rate was 67.90%.

As to `CCCCCCCCCCOC(=O)CCCCCN(CCO)CCN(CCO)CCCCCC(=O)OCCC(CCCCCC)CCCCCC` [YK-411], in the data set with female BALB/C mice [1], the “average radiation intensity, 6 h” value is on record as 5850; the “average radiation intensity, 24 h” value turned out to be 2022; the “average radiation intensity, 48 h” value is reported as 975; the “average radiation intensity, 7 d” value stood at 480. In data set [2], this compound had a PDI of 5.2% and a Particle size of 150 nm. Also, in data set [3], the Drug loading concentration came out at 36.72 µg/mL, the Encapsulation efficiency turned out to be 86.3% and the “Total RNA concentration” value worked out at 42.57 µg/mL. Also, the “protein expression in the liver” value in the data set on female BALB/C mice [4] (mouse, in vivo) is on record as “had no protein expression in the liver”. The “Relative light unit (RLU)” value with 293T cells [5] amounted to 7976 RLU. The compound further gave a Cell survival rate in the data set with 293T cells [6] of 16.33%.

Consider “bis(3-hexylnonyl) 8,8′-((2-hydroxyethyl) azanediyl)dioctanoate [Compound 23, reference compound]”, for which, in the data set with female BALB/C mice [1], the “average radiation intensity, 6 h” value is recorded as 581400; the “average radiation intensity, 24 h” value is 100970; the “average radiation intensity, 48 h” value was found to be 32917; the “average radiation intensity, 7 d” value is 6105. Moreover, in the data set on 293T cells [7] (RLU of YK-402 divided by RLU of the lipid named in the row), the “Multiple of YK-402” value turned out to be 3.60. The “Multiple of YK-403” value with 293T cells [7] (RLU of YK-403 divided by RLU of the lipid named in the row) amounted to 3.74. Besides, the “Multiple of YK-407” value in the data set on 293T cells [7] (RLU of YK-407 divided by RLU of the lipid named in the row) is 14.53. Also, the “Multiple of YK-422” value with 293T cells [7] (RLU of YK-422 divided by RLU of the lipid named in the row) is reported as 4.59. Also, the “Multiple of YK-423” value with 293T cells [7] (RLU of YK-423 divided by RLU of the lipid named in the row) was 4.44. Also, the “Ratio relative to SM-102 (RLU, times that of SM-102)” value in the data set on 293T cells [7] (RLU of the lipid divided by RLU of SM-102) was found to be 0.82. For the same compound, in data set [2], the PDI was determined as 12.1% and the Particle size is recorded as 147 nm. Further, in data set [3], the Drug loading concentration amounted to 20.01 µg/mL, the Encapsulation efficiency was determined as 56.2% and the “Total RNA concentration” value worked out at 31.05 µg/mL. Besides, in the data set on female BALB/C mice [4] (mice, intramuscular Fluc-mRNA LNP, at 6h (FIG. 14)), the “protein expression in the liver” value is recorded as “had protein expression in the liver”. In the data set with 293T cells [5], the “Multiple of YK-401” value worked out at 4.00 and the “Relative light unit (RLU)” value was found to be 1402597 RLU. The compound further had a Cell survival rate with 293T cells [6] of 69.11%.
